Like-named read-outs stand apart in the source and are kept apart here.
Target: T1, human CGT (Homo sapiens, UniProt Q16880)
T1 sequence (Q16880 21-541): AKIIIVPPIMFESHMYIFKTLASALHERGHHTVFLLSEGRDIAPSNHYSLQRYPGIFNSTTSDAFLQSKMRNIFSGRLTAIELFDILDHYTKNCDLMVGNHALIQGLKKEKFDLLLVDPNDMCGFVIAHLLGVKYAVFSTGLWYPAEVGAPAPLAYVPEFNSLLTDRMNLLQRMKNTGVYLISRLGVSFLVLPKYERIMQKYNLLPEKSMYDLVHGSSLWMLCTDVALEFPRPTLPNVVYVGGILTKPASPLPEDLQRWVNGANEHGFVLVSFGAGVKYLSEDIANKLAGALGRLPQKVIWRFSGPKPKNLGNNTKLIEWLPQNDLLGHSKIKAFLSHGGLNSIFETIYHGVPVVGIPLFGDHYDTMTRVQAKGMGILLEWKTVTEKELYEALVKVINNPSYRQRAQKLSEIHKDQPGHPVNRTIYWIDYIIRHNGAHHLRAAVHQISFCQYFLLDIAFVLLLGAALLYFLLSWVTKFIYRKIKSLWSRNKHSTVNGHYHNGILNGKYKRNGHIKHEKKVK
Assay: Assay 1: CGT Enzymatic Assay (RapidFire/MS/MS, 0.01% Tween 80)
Assay type: biochemical
Settings: Table 1, Compounds of Formula (I) and Formula (II), CGT enzymatic assay, read-out: IC50

[1] = C6-NBD-dihydro-galactosylceramide readout

Compound	IC50 [µM]	IC50 [1] [µM]
CCC[C@H]1N(c2ccc(Br)cc2)C(=O)N(c2ccc(Br)cc2)C1(O)c1cccc(C)c1 (stereo partly drawn) [Compound 96-2, (5R)-1,3-bis(4-bromophenyl)-4-hydroxy-5-propyl-4-(m-tolyl)imidazolidin-2-one]	< 1	–
Cc1csc(C2(O)C(C)N(c3ccc(Br)cc3)C(=O)N2c2ccc(Br)cc2)c1 (centres unmarked) [Compound 97, 1,3-bis(4-bromophenyl)-4-hydroxy-5-methyl-4-(4-methylthiophen-2-yl)imidazolidin-2-one]	1 to 10	–
CCc1cccc(C2(O)CN(c3ccc(Br)cc3)C(=O)N2c2ccc(Br)cc2)c1 (centres unmarked) [Example 47, 1,3-bis(4-bromophenyl)-4-(3-ethylphenyl)-4-hydroxyimidazolidin-2-one]	1 to 10	–
O=C1N(c2ccc(Cl)cc2)[C@@H](C2CC2)C(O)(c2cccc(OC(F)F)c2)N1c1ccc(Cl)cc1 (stereo partly drawn) [Compound 233-1, (5S)-1,3-bis(4-chlorophenyl)-5-cyclopropyl-4-(3-(difluoromethoxy)phenyl)-4-hydroxyimidazolidin-2-one]	< 1	–
CC[C@@H]1N(c2ccc(Cl)cc2)C(=O)N(c2ccc(Cl)cc2)C1(O)c1cccc(C#N)c1 (single isomer, unassigned) [Compound 106-1]	< 1	–
CC1(C)N(c2ccc(Cl)cc2)C(=O)N(c2ccc(Cl)cc2)C1(O)c1cncc(C#N)c1 (centres unmarked) [Example 186, 5-(1,3-bis(4-chlorophenyl)-4-hydroxy-5,5-dimethyl-2-oxoimidazolidin-4-yl)nicotinonitrile]	< 1	–
Cc1ccc(N2C(=O)N(c3ccc(Cl)cc3)C3(CCC3)C2(O)c2cccc(OC(F)(F)F)c2)cc1 (centres unmarked) [Example 333, 5-(4-chlorophenyl)-8-hydroxy-7-(p-tolyl)-8-(3-(trifluoromethoxy)phenyl)-5,7-diazaspiro[3.4]octan-6-one]	–	< 1
N#Cc1ccc(N2C(=O)N(c3ccc(Cl)cc3)C(O)(c3cccc(C#N)c3)C23CCC3)cc1 (centres unmarked) [Compound 268, 3-(7-(4-chlorophenyl)-5-(4-cyanophenyl)-8-hydroxy-6-oxo-5,7-diazaspiro[3.4]octan-8-yl)benzonitrile]	–	< 1
COC[C@@]1(C)N(c2ccc(Cl)cc2)C(=O)N(c2ccc(Cl)cc2)[C@@]1(O)c1cccc(OC(F)(F)F)c1 [Compound 296-1, (4R,5R)-1,3-bis(4-chlorophenyl)-4-hydroxy-5-(methoxymethyl)-5-methyl-4-(3-(trifluoromethoxy)phenyl)imidazolidin-2-one]	–	1 to 10
CCCC1N(c2ccc(Br)cc2)C(=O)N(c2ccc(Br)cc2)C1(O)c1cccc(Cl)c1 (centres unmarked) [Compound 119, 1,3-bis(4-bromophenyl)-4-(3-chlorophenyl)-4-hydroxy-5-propylimidazolidin-2-one]	< 1	–
Cc1ccc(N2C(=O)N(c3ccc(C#N)cc3)C(C)(C)C2(O)c2cccc(C#N)c2)cc1 (centres unmarked) [Compound 270, 3-(1-(4-cyanophenyl)-4-hydroxy-5,5-dimethyl-2-oxo-3-(p-tolyl)imidazolidin-4-yl)benzonitrile]	–	< 1
CC1(O)CN(c2ccc(Br)cc2)C(=O)N1c1ccc(Br)cc1 (centres unmarked) [Example 2, 1,3-bis(4-bromophenyl)-4-hydroxy-4-methylimidazolidin-2-one]	> 50	–
O=C1N(c2ccc(Cl)cc2)C2(CCC2)C(O)(c2cccc(OC(F)F)c2)N1c1ccc(Cl)cc1 (centres unmarked) [Example 165, 5,7-bis(4-chlorophenyl)-8-(3-(difluoromethoxy)phenyl)-8-hydroxy-5,7-diazaspiro[3.4]octan-6-one]	< 1	–
CCC1N(c2ccc(Br)cc2)C(=O)N(c2ccc(Br)cc2)C1(O)c1cccc(OC(F)(F)F)c1 (stereo in doubt) [Compound 83-2, (5R)-1,3-bis(4-bromophenyl)-5-ethyl-4-hydroxy-4-(3-(trifluoromethoxy)phenyl)imidazolidin-2-one]	< 1	–
CC[C@@H]1N(c2ccc(Br)cc2)C(=O)N(c2ccc(Br)cc2)C1(O)c1ccccc1 (some centres unmarked) [Example 25-1]	< 1	–
Cc1ccc(N2C(=O)N(c3ccc(Cl)cc3)C(O)(c3cccc(C#N)c3)C23CCC3)cc1 (centres unmarked) [Example 316, 3-(7-(4-chlorophenyl)-8-hydroxy-6-oxo-5-(p-tolyl)-5,7-diazaspiro[3.4]octan-8-yl)benzonitrile]	–	< 1
O=C1N(c2ccc(Cl)cc2)CC(O)(c2cc(Cl)cc(Br)c2)N1c1ccc(Cl)cc1 (centres unmarked) [Compound 98, 4-(3-bromo-5-chlorophenyl)-1,3-bis(4-chlorophenyl)-4-hydroxyimidazolidin-2-one]	1 to 10	–
CCC1(O)C(=O)N(c2ccc(Br)cc2)C(=O)N1c1ccc(Br)cc1 (centres unmarked) [Compound 143, 1,3-bis(4-bromophenyl)-5-ethyl-5-hydroxyimidazolidine-2,4-dione]	10 to 50	–
C[C@H]1N(c2ccc(Br)cc2)C(=O)N(c2ccc(Br)cc2)C1(O)c1cccs1 (some centres unmarked) [Example 49-2]	1 to 10	–
CCC1N(c2ccc(Cl)cc2)C(=O)N(c2ccc(Cl)cc2)C1(O)c1cccc(C#N)c1 (centres unmarked) [Compound 106, 3-(1,3-bis(4-chlorophenyl)-5-ethyl-4-hydroxy-2-oxoimidazolidin-4-yl)benzonitrile]	< 1	–
Cc1cc(C#N)cc(C2(O)CN(c3ccc(Cl)cc3)C(=O)N2c2ccc(Cl)cc2)c1 (centres unmarked) [Compound 102, 3-(1,3-bis(4-chlorophenyl)-4-hydroxy-2-oxoimidazolidin-4-yl)-5-methylbenzonitrile]	1 to 10	–
CC1(O)C(=O)N(c2ccc(Br)cc2)C(=O)N1c1ccc(Br)cc1 (centres unmarked) [Example 193, 1,3-bis(4-bromophenyl)-5-hydroxy-5-methylimidazolidine-2,4-dione]	50 to 100	–
O=C1N(c2ccc(C(F)(F)F)cc2)CC(O)(c2ccccc2)N1c1ccc(C(F)(F)F)cc1 (centres unmarked) [Example 15, 4-hydroxy-4-phenyl-1,3-bis(4-(trifluoromethyl)phenyl)imidazolidin-2-one]	> 50	–
Cc1cccc(C2(O)CN(c3ccc(Br)cc3)C(=O)N2c2ccc(Br)cc2)c1 (centres unmarked) [Example 16, 1,3-bis(4-bromophenyl)-4-hydroxy-4-(m-tolyl)imidazolidin-2-one]	1 to 10	–

Results, then the molecule that gave them:

IC50 [µM]	IC50 [1] [µM]	Compound
1 to 10	–	O=C1N(c2ccc(Cl)cc2)C(c2cccs2)C(O)(c2ccccc2)N1c1ccc(Cl)cc1 (centres unmarked) [Compound 109, 1,3-bis(4-chlorophenyl)-4-hydroxy-4-phenyl-5-(thiophen-2-yl)imidazolidin-2-one]
10 to 50	–	O=C1N(c2ccc(Br)cc2)C(=O)C(O)(c2ccccc2)N1c1ccc(Br)cc1 (centres unmarked) [Compound 141, 1,3-bis(4-bromophenyl)-5-hydroxy-5-phenylimidazolidine-2,4-dione]
50 to 100	–	O=C1N(c2cccc(Br)c2)C(=O)C(O)(c2ccccc2)N1c1cccc(Br)c1 (centres unmarked) [Example 181, 1,3-bis(3-bromophenyl)-5-hydroxy-5-phenylimidazolidine-2,4-dione]
< 1	–	Cc1cccc(C2(O)C(C)N(c3ccc(Cl)cc3)C(=O)N2c2ccc(Cl)cc2)c1 (centres unmarked) [Example 36]
10 to 50	–	C[C@]1(c2ccccc2)C(O)N(c2ccc(Cl)cc2)C(=O)N1c1ccc(Cl)cc1 (single isomer, unassigned) [Example 223-1]
10 to 50	–	O=C1N(c2ccc(Br)cc2)CC(O)(c2ccccc2)N1c1ccccc1 (centres unmarked) [Example 28, 1-(4-bromophenyl)-4-hydroxy-3,4-diphenylimidazolidin-2-one]
> 50	–	C[C@]1(c2ccccc2)N(c2ccc(Cl)cc2)C(=O)N(c2ccc(Cl)cc2)[C@]1(O)c1ccccc1 [Compound 121-3, (4S,5R)-1,3-bis(4-chlorophenyl)-4-hydroxy-5-methyl-4,5-diphenylimidazolidin-2-one]
50 to 100	–	Cc1ccc(C2(O)C(=O)N(c3ccc(Br)cc3)C(=O)N2c2ccc(Br)cc2)cc1 (centres unmarked) [Example 200, 1,3-bis(4-bromophenyl)-5-hydroxy-5-(p-tolyl)imidazolidine-2,4-dione]
< 1	–	N#Cc1cccc(C2(O)CN(c3ccc(Cl)cc3)C(=O)N2c2ccc(Cl)cc2)c1 (centres unmarked) [Compound 63, 3-(1,3-bis(4-chlorophenyl)-4-hydroxy-2-oxoimidazolidin-4-yl)benzonitrile]
10 to 50	–	COc1cccc(C2(O)C(=O)N(c3ccc(Br)cc3)C(=O)N2c2ccc(Br)cc2)c1 (centres unmarked) [Example 179, 1,3-bis(4-bromophenyl)-5-hydroxy-5-(3-methoxyphenyl)imidazolidine-2,4-dione]
10 to 50	–	O=C1N(c2cccc(Cl)c2)C(=O)C(O)(c2ccccc2)N1c1cccc(Cl)c1 (centres unmarked) [Example 162, 1,3-bis(3-chlorophenyl)-5-hydroxy-5-phenylimidazolidine-2,4-dione]
10 to 50	–	O=C1N(c2ccc(Cl)cc2)C(c2ccccc2)C(O)(CO)N1c1ccc(Cl)cc1 (centres unmarked) [Example 218, 1,3-bis(4-chlorophenyl)-4-hydroxy-4-(hydroxymethyl)-5-phenylimidazolidin-2-one]
< 1	–	CC1N(c2ccc(Cl)cc2)C(=O)N(c2ccc(Cl)cc2)C1(O)c1cccc(Cl)c1 (centres unmarked) [Compound 62, 4-(3-chlorophenyl)-1,3-bis(4-chlorophenyl)-4-hydroxy-5-methylimidazolidin-2-one]
50 to 100	–	CC(C)c1ccc(N2C(=O)N(c3ccc(C(C)C)cc3)C(O)(c3ccccc3)C2=O)cc1 (centres unmarked) [Compound 145, 5-hydroxy-1,3-bis(4-isopropylphenyl)-5-phenylimidazolidine-2,4-dione]
